According to US9044501B2, “Method of preventing and/or treating a neurodegenerative disease by administering an extract of Lycoris chejuensis and/or a compound isolated therefrom” (KOREA INSTITUTE OF SCIENCE AND TECHNOLOGY, priority 2009, dated 2015):

Tests used:
viable cells = test: MTT Cell Proliferation assay, effect on cell death; type: cell-based
Experimental: In order to measure the effect of an extraction or a fraction of Lycoris chejuensis on cell death, MTT Cell Proliferation assay (ATCC catalog #30-1010K, Manassas, USA), which is a conventionally known method, was used. In particular, a cell was treated with various concentrations of an ethanol extract (CJ) of Lycoris chejuensis and a butanol fraction (CJ-3) of Lycoris chejuensis for 8 hours, and then, viable cells were quantified.

[1] = test system: β-amyloid (Aβ40) production; test: β-amyloid (Aβ40) production in APP-transfected HeLa cells, ELISA of culture solution; type: cell-based, human
Experimental: (§1) In order to examine the effect of the ethanol extract of Lycoris chejuensis obtained in Example <1-1> to inhibit β-amyloid production, HeLa cell line transfected with human amyloid precursor protein(APP) was cultured in DMEM culture medium (Cat. #11995, Gibco, USA). The cell line was supplied by Prof. Tae-Wan Kim, Department of Pathology, Columbia University Medical Center, New York, N.Y.10032, USA.
(§2) To the cell culture solution, the ethanol extract of Lycoris chejuensis (CJ) obtained in Example <1-1> was added, and then, it was cultured at 37° C. for 8 hours, and the amount of β-amyloid secreted in the culture solution was measured. More specifically, in order to quantify β-amyloid, two kinds of β-amyloid (Aβ40, Aβ42), Human β-Amyloid (Aβ40) and Human β-Amyloid (Aβ42) Colorimetric ELISA kits (#KHB3482 and #KHB3442; BioSource International, Inc., USA) were respectively used. The negative control means the case to which the extract of Lycoris chejuensis was not added.

[2] = test system: β-amyloid (Aβ42) production; test: β-amyloid (Aβ42) production in APP-transfected HeLa cells, ELISA of culture solution; type: cell-based, human
Experimental: as §1, §2

[3] = test system: β-secretase product (sAPPβ) production; test: β-secretase product (sAPPβ) production in APP-transfected HeLa cells, sAPPβ-Wild Type Assay Kit; type: cell-based; details: Homo sapiens, read-out: Inhibition rate (%) of sAPPβ production compared to negative control
Excerpt: The cause of inhibition of β-amyloid production in the Experimental example <3> was examined in more detail. β-amyloid was produced from amyloid precursor(APP) by continuous actions of membrane protein hydrolytic enzyme, β-secretase (BACE1), and γ-secretase (Vassa and Citron, Neuron 27, 419-422, 2000). More specifically, β-secretase product(sAPPβ) is produced from amyloid precursor (APP) by the action of β-secretase, from which β-amyloid is produced by the action of γ-secretase.
Based on the above, it was identified whether or not dihydrolycoricidine obtained in Example <2-1> is capable of inhibiting the production of β-secretase product(sAPPβ). Specifically, the same procedure as Experimental example <3> was conducted except that sAPPβ-Wild Type Assay Kit (Immuno-Biological Laboratories Co., Ltd., Japan) was used for quantifying sAPPβ. The negative control means the case to which dihydrolycoricidine was not added.

[4] = test system: β-amyloid (Aβ42) production; test: β-amyloid (Aβ42) production in APP-transfected HeLa cells, ELISA of culture solution; type: cell-based, human; details: for Inhibition rate (%) of Aβ42 production compared to that of negative control: 8 hours
[5] = test system: β-amyloid (Aβ40) production; test: β-amyloid (Aβ40) production in APP-transfected HeLa cells, ELISA of culture solution; type: cell-based, human; details: for Inhibition rate (%) of Aβ40 production compared to that of negative control: 8 hours
[6] = 10, 5, 1, 0.5, 0.2, 0.1 and 0.05 μg/ml, 8 hours
[7] = Homo sapiens, HeLa, 8 h, read-out: Inhibition rate (%) of Aβ40 production compared to that of negative control
[8] = Homo sapiens, HeLa, 8 h, read-out: Inhibition rate (%) of Aβ42 production compared to that of negative control

For `COC1C=C2C3CN(Cc4cc5c(cc43)OCO5)C2CC1O` (stereo not shown) [2-methoxypancracine], the cells died (viable cells; 5 μg/ml (FIG. 11)) was no more than 10%, the “β-amyloid (Aβ40) production (FIG. 7)” value [1, 6] was “inhibited by 2-methoxypancracine in a concentration dependent manner” and the “β-amyloid (Aβ42) production (FIG. 7)” value [2, 6] was “inhibited by 2-methoxypancracine in a concentration dependent manner”.

For `O=C1NC2C(CC(O)C(O)C2O)c2cc3c(cc21)OCO3` (stereo not shown) [dihydrolycoricidine], the cells died (viable cells; 50 μM) was no more than 30%, the “Cell death (%) compared to negative control” value (“Cell death (%)” below) (viable cells; dihydrolycoricidine 5 μM) was 18.3% and the “Cell death (%)” value (viable cells; dihydrolycoricidine 10 μM) was 23.3%. For the same molecule, the “Cell death (%)” value (viable cells; dihydrolycoricidine 25 μM) was 25.3%, the “Cell death (%)” value (viable cells; dihydrolycoricidine 50 μM) was 28.1% and the inhibition at 5 µM ([3]; 5 μM) was 6%. For the same molecule, the inhibition at 10 µM ([3]; 10 μM) was 12%, the inhibition at 25 µM ([3]; 25 μM) was 28.9% and the inhibition at 50 µM ([3]; 50 μM) was 36.1%. The inhibition at 5 µM ([4]; Homo sapiens, HeLa, 5 μM, read-out: Inhibition rate (%) of Aβ42 production compared to that of negative control) was 58.8%, the inhibition at 10 µM ([4]; Homo sapiens, HeLa, 10 μM, read-out: Inhibition rate (%) of Aβ42 production compared to that of negative control) was 63.8% and the inhibition at 25 µM ([4]; Homo sapiens, HeLa, 25 μM, read-out: Inhibition rate (%) of Aβ42 production compared to that of negative control) was 88.8%. It also gave an inhibition at 50 µM ([4]; Homo sapiens, HeLa, 50 μM, read-out: Inhibition rate (%) of Aβ42 production compared to that of negative control) of 92.2%, an inhibition at 5 µM ([5]; Homo sapiens, HeLa, 5 μM, read-out: Inhibition rate (%) of Aβ40 production compared to that of negative control) of 28.4% and an inhibition at 10 µM ([5]; Homo sapiens, HeLa, 10 μM, read-out: Inhibition rate (%) of Aβ40 production compared to that of negative control) of 56.1%. For the same molecule, the inhibition at 25 µM ([5]; Homo sapiens, HeLa, 25 μM, read-out: Inhibition rate (%) of Aβ40 production compared to that of negative control) was 59.8% and the inhibition at 50 µM ([5]; Homo sapiens, HeLa, 50 μM, read-out: Inhibition rate (%) of Aβ40 production compared to that of negative control) was 63%.

In the case of `O=C1NC2C(=CC(O)C(O)C2O)c2cc3c(cc21)OCO3` (stereo not shown) [lycoricidine], the cells died (viable cells; 10 μM (lycoricidine)) was no more than 20%, the “Cell death (%)” value (viable cells; 8 h, 0.01 μg/ml) was 4.9% and the “Cell death (%)” value (viable cells; 8 h, 0.1 μg/ml) was 11.3%. The “Cell death (%)” value (viable cells; 8 h, 1 μg/ml) was 19.0%, the “Cell death (%)” value (viable cells; 8 h, 10 μg/ml) was 21.1% and the inhibition at 0.01 µg/mL [1, 7] was 3.3%. It also gave an inhibition at 0.1 µg/mL [1, 7] of 67%, an inhibition at 1 µg/mL [1, 7] of 92.8% and an inhibition at 10 µg/mL [1, 7] of 97.2%. For the same molecule, the inhibition at 0.01 µg/mL [2, 8] was 16%, the inhibition at 0.1 µg/mL [2, 8] was 81.3% and the inhibition at 1 µg/mL [2, 8] was 97.5%. It also gave an inhibition at 10 µg/mL [2, 8] of 100%.

With `O=C1NC2C(=CC(O)C(O)C2O)c2cc3c(c(O)c21)OCO3` (stereo not shown) [lycoricidinol] the cells died (viable cells; 10 μM (lycoricidinol)) was no more than 20%, the “Cell death (%)” value (viable cells; lycoricidinol 0.01 μg/ml) was 10.3% and the “Cell death (%)” value (viable cells; lycoricidinol 0.1 μg/ml) was 11.6%. The “Cell death (%)” value (viable cells; lycoricidinol 1 μg/ml) was 16.5%, the “Cell death (%)” value (viable cells; lycoricidinol 10 μg/ml) was 19.3% and the “Inhibition rate (%) of Aβ42 production compared to that of negative control” value (from here on “Inhibition rate (%) of Aβ42 production”) ([4]; lycoricidinol 0.01 μg/ml) was 44.0%. The “Inhibition rate (%) of Aβ42 production” value ([4]; lycoricidinol 0.1 μg/ml) was 97.0%, the “Inhibition rate (%) of Aβ42 production” value ([4]; lycoricidinol 1 μg/ml) was 100% and the “Inhibition rate (%) of Aβ42 production” value ([4]; lycoricidinol 10 μg/ml) was 100%. The “Inhibition rate (%) of Aβ40 production compared to that of negative control” value (shortened to “Inhibition rate (%) of Aβ40 production”) ([5]; lycoricidinol 0.01 μg/ml) was 25.0%, the “Inhibition rate (%) of Aβ40 production” value ([5]; lycoricidinol 0.1 μg/ml) was 90.4% and the “Inhibition rate (%) of Aβ40 production” value ([5]; lycoricidinol 1 μg/ml) was 97.8%. The “Inhibition rate (%) of Aβ40 production” value ([5]; lycoricidinol 10 μg/ml) was 98.4%.
